How the values were obtained:
[1] = test system: CHX tumor cells; experiment: H/E staining of tumor tissues from xenografted nude mice; assay type: in vivo, athymic nude mice; conditions: RA 0.5 mg/ml, every two weeks for 8 weeks
Protocol: (§1) The CHX tumor cells were collected at 1×10^7 cells/well and administered subcutaneously to the hind legs of athymic nude mice. Appearance of tumor mass was observed every week. Tumor masses appeared 3 weeks after the subcutaneous administration, and, when a tumor size was increased to 5 mm, one group of the mice was untreated (control group), and the other groups of the mice were treated as follows: a LDH-dose group with LDH (1 mg/ml), a RA-dose group with RA (0.5 mg/ml), and a LDH-RA dose group with LDH-RA (50 μg/ml). The LDH-dose group, the RA-dose group, and the LDH-RA dose group were further treated with LDH, RA, and LDH-RA, respectively, every two weeks for 8 weeks. Referring to FIG. 12, in the control group, a tumor size was increased to 30 mm after 8 weeks. […] In the RA-dose group, a tumor size was reduced by about 20%. In the LDH-RA dose group, a tumor size was reduced by 80% or more. After then, the mice were anesthetized. Tumor tissues were cut, fixed in formalin, and cut into sections (5 μm thick) on a microtome. The sections were stained with hematoxylin/eosin (H/E) and examined with a microscope (50× magnification), and the results are shown in FIG. 13. Referring to FIG. 13, in the control group, tumor masses were found in almost all tissues, thereby causing growth retardation of tumor, resulting in necrosis. […]

[2] = test system: CHX tumor cells; experiment: Activity of lactic acid dehydrogenase associated with apoptotic cell death; assay type: cell-based; conditions: 250 μg/ml of RA, 12 hours
Protocol: In order to evaluate an anticancer effect of a LDH-RA hybrid obtained according the present invention, activity of lactic acid dehydrogenase associated with apoptotic cell death was measured. For this, the CHX tumor cells were seeded into each well of a 96-well plate. The CHX tumor cells were divided into 6 groups: normal group with no treatment, LDH-dose group with 1,000 μg/ml of LDH, RA-dose group with 250 μg/ml of RA, LDH-RA low-dose group with 25 μg/ml of LDH-RA, LDH-RA mid-dose group with 50 μg/ml of LDH-RA, and LDH-RA high-dose group with 100 μg/ml of LDH-RA. All groups were cultured for 12 hours. 20 μl of pyruvate substrate (NADH 1 mg/ml) was added to each group, and the cultures were mixed at room temperature for 2 minutes and stirred at 37° C. for 30 minutes. 20 μl of a color reagent (Sigma 505-2) was added to each culture, and the resultant cultures were mixed at room temperature for 20 minutes. 100 μg of 0.4N NaOH was added to each culture, and the resultant cultures were mixed at room temperature for 15 minutes. Referring to FIG. 9, the activities of lactic acid dehydrogenase of the normal group, the LDH-dose group, and the RA-dose group were 6±1.5%, 13±2%, and 42±5%, respectively. The activities of lactic acid dehydrogenase of the LDH-RA low-dose group, the LDH-RA mid-dose group, and the LDH-RA high-dose group were 41±2%, 76±6%, and 86±5%, respectively. […]

[3] = test system: CHX tumor cells; experiment: Tumor development in xenografted nude mice (tumor size); assay type: in vivo, athymic nude mice; conditions: RA 0.5 mg/ml, LDH-RA 50 μg/ml, every two weeks for 8 weeks; control tumor 30 mm after 8 weeks
Protocol: as §1

CC1=C(/C=C/C(C)=C/C=C/C(C)=C/C(=O)O)C(C)(C)CCC1 [RA, retinoic acid]
reduction in tumor tissues (H/E staining) [1]: 15% | activity of lactic acid dehydrogenase [2]: 42±5% | tumor size reduced by [3]: about 20%

From patent US20080153907A1, “Pharmaceutical Composition for the Treatment of Cancer Comprising Lhm-Ra Complex” (NANOHYBRID CO., LTD., priority 2005, published 2008)
